Test results reported in US20180235904A1, “CANNABIDIOL COMPOSITIONS INCLUDING MIXTURES AND USES THEREOF” (EARTH SCIENCE TECH, INC., priority 2014, published 2018).

Tested on: RAW264.7 macrophages
Assay: Stimulation of macrophages, TNFα production (ELISA)
Format: cell-based, mouse
Conditions: 24 h
Description: RAW264.7, a mouse macrophage-like cell line, was used. The cells were cultured in DMEM, supplemented with 10% fetal calf serum (FCS), in 5% CO2, 95% air, at 37° C. in an humidified incubator.
The stimulation of macrophages was assessed by TNFα production, using a mouse TNFα ELISA kit.
To study the effects of hemp oil on macrophages, cells were seeded in a 24-well plate (2×10^5 cell/well) in 1-ml medium in each well for 12 h, and then incubated with hemp oil solution of different CBD concentrations (0-10 μM) for 24 h. Cell supernatant was collected for ELISA analysis.
After the macrophages were incubated with hemp oil of different CBD concentrations (0, 1, 2.5, 5, 10 μM), the TNFα production by the cells was detected.

Which TNFα production (CBD concentration of 10 μM) does the source give for C=C(C)[C@@H]1CCC(C)=C[C@H]1c1c(O)cc(CCCCC)cc1O [CBD, Cannabidiol] here?
The TNFα production was “induced TNFα production at a significantly higher level”.

And the “impact on macrophages (TNFα production)” value (CBD concentration range of 0 to 5 μM)?
Its value is “not significant”.
